According to patent US20220023269A1, “Methods Of Treating Diabetes In Severe Insulin-Resistant Diabetic Subjects” (Balticgruppen Bio AB, priority 2018, published 2022):

Assays:
aged, lean B6 mice = assay: Treadmill endurance test; format: in vivo; conditions: 20 mg/kg/day gavage, 30 days
Procedure: One week prior to the test mice went through a familiarization session of 5 minutes on the treadmill. Running protocol as follows: 15 minutes at 18.8 m/minute, 5 minutes at 24.4 m/minute and 27.1 m/minute until exhaustion. At exhaustion, blood lactate levels were measured using a lactate test meter (Arkray).

INS-1E cells = assay: Autophagic flux assay; format: cell-based; conditions: 5 μM, 24 h, ± 100 nM Bafilomycin A1
Procedure: INS-1E cells were incubated for 24 h with or without 5 μM test material in the presence or absence of 100 nM Bafilomycin A1 (InvivoGen #tlrl-baf1) during the last 60 min of incubation. Levels of LC3II were determined by Western blot analysis and quantified.

DIO mice = assay: Prevention of dysglycemia and insulin resistance in DIO B6 mice (oral gavage, 8 w); format: in vivo; conditions: 100 mg/kg/day each
Procedure: MATSUDA index was calculated via: […] […] All cell lines were lysed in 0.1 M Tris-HCl, pH 6.8, 2% SDS, 10 mM sodium fluoride (SIGMA #S7920), 10 mM β-glycerophosphate (SIGMA #G6376), and 1 mM sodium vanadate (SIGMA #72060) and supernatant collected after 1 minute at 14,000 rpm. Islets (human and mouse) were lysed in 0.1 M Tris-HCl, pH 6.8, 2% SDS, protease inhibitor (Roche #04 693 124 001) and phosphatase inhibitor (Roche #04 906 837 001). […] The supernatant was collected after 2 min at 14,000 rpm. This procedure was repeated until all fat was eliminated and the supernatant was clear, at 4° C. Samples were analysed on 4-15% polyacrylamide gels. Values were normalised toward AMPKα, β-Actin, GAPDH or the respective non-phosphorylated counterpart. For RNA purification calf muscle, iWAT, interscapular BAT, and left lateral liver lobe was crushed in a pestle using liquid nitrogen before turning to respective RNA kit. RNA from liver was prepared using Total RNA isolation Nucleospin II Kit (Macherey-Nagel #740955.50). RNA from adipose tissue was prepared using RNeasy Lipid Tissue Mini kit (Qiagen #74804). RNA from calf muscle tissue was prepared using RNeasy Fibrous Tissue Mini kit (Qiagen #74704). First strand cDNA synthesis was done using SuperScript III (First-Strand Synthesis SuperMix for qRT-PCR, Invitrogen #11752-250) according to the manufacturer's instructions. Total RNA was prepared from isolated islets using RNeasy Micro Kit (Qiagen #74004) and first strand cDNA synthesis was done using Superscript III (Invitrogen #18080-051) according to the manufacturer's instructions. Quantification of mRNA expression levels was performed essentially as previously described (Reference 3).

DIO mice (B6CBAF1/J) = assay: Laser Doppler imaging of peripheral blood perfusion; format: in vivo; conditions: 40 mg/kg/day gavage, 8 w, vs vehicle
Procedure: 9 weeks old F1 mice were fed HFD for 8 weeks and treated with either vehicle or test material (40 mg/kg, orally once a day). Veet hair removal cream was used to remove hair from the left hind limb one day prior to blood perfusion analysis. Mice were anaesthetised using isoflurane and placed on a heating pad. Blood perfusion was scanned using a PeriScan PIM II Images and LDPIwin software (version 2.6.1) was used to analyse the images.

CBA mice on HFD = assay: In vivo glucose uptake ([18F]-FDG PET); conditions: 2 mg/g in HFD, 2 w, vs HFD
Procedure: Mice were allowed to be awake and freely moving around in their cage after injection. After 180 minutes, mice were sacrificed under deep isoflurane anaesthesia and blood was removed by retrograde perfusion of PBS via the aorta. When the liver was pale, tissues were collected and scanned for a 10 minutes static uptake (nanoScan PET/CT, Mediso, Hungary). The tissues were then scanned ex vivo scanning to assess uptake in the isolated tissues. Images were reconstructed to a 0.4×0.4 mm resolution with a 3D iterative reconstruction with 4 iterations and 4 subsets (Mediso Tera-Tomo 3D), covering 98 mm axial distance, employing spike filter, delayed-window random correction, scatter and CT-based attenuation corrections. Volumes of interest were manually delineated over each tissue using imlook4d (www.dicom-port.com). Tracer uptake was quantified as standardised uptake values (SUV), using the formula: SUV=C/(l/m); with C being the measured tissue activity concentration (Bq/mL), l the injected dose (Bq), and m the body weight (g). C and l are decay corrected to the same time.

`O=C(Nc1nc(=O)n(Cc2ccc(Cl)cc2)s1)c1ccc(Cl)cc1` [test material, 4-chloro-N-[2-[(4-chlorophenyl)methyl]-3-oxo-1,2,4-thiadiazol-5-yl]benzamide] was tested, and the “blood lactate levels after endurance test” value (aged, lean B6 mice) was “significantly reducing the increase in blood lactate levels”, the “endurance capacity (running distance to exhaustion)” value (aged, lean B6 mice; vs vehicle) was “significantly improved endurance capacity” and the “autophagic flux (LC3II)” value (INS-1E cells) was “enhanced autophagic flux”. For the same compound, the “HFD-provoked increase in fasted glucose” value (DIO mice; oral gavage, 6 w) was “averted the HFD-provoked increase”, the “HFD-provoked increase in fasted plasma insulin” value (DIO mice; oral gavage, 6 w) was “averted the HFD-provoked increase” and the “insulin resistance (HOMA-IR)” value (DIO mice; oral gavage, vs vehicle) was “did not develop insulin resistance”. The “Glut1 mRNA levels in calf muscle” value (DIO mice; 8 w) was “increased Glut1 mRNA levels”, the “Txnip mRNA levels in calf muscle” value (DIO mice; 8 w) was “reduced Txnip mRNA levels” and the “pAMPK in calf muscle” value (DIO mice; 8 w) was “significantly increased pAMPK”. The “microvascular blood flow in hind legs” value (DIO mice (B6CBAF1/J)) was “significantly increased microvascular blood flow”, the “[18F]-FDG uptake in calf and thigh muscle” value (CBA mice on HFD) was “significant increase” and the “[18F]-FDG uptake in heart” value (CBA mice on HFD) was “significant increase”.
